Results on one compound are retold here after patent publication US20240115581A1, “Combination therapy for the treatment or prevention of neurological disorders” (Norwegian University of Science and Technology (NTNU), priority 2022, published 2024).

Data set [1] deals with 3xTg AD mice. Put plainly: Quantification of amyloid plaques (number, size) in dSub after intraventricular infusions. It counts as in vivo. As to conditions: Lonafarnib 80 mg/kg intraventricular, 10 days, 14 months-old 3xTg AD mice.
Protocol: Mice were administered a lethal dose of sodium pentobarbital (100 mg/ml; Apotekforeningen, Oslo, Norway) and transcardially perfused with Ringer's solution followed by paraformaldehyde (PFA, 4%; Sigma-Aldrich) in 125 mM phosphate buffer (PB). Brains were extracted and fixed for a minimum of 24 h in PFA at 4° C. and transferred to a 2% DMSO solution prepared in PB for 24 h at 4° C. Brains were sectioned coronally at 40 μm on a freezing-sliding microtome (Microm HM430, ThermoFisher Scientific, Waltham, MA, United States).
An incision was made in the non-implanted hemisphere for visualization of the control hemisphere. Immunohistochemical processing was conducted on the tissue. […]
Data set [2] concerns 3xTg AD mice. Put plainly: LAMP1 immunolabelling in dSub. It counts as in vivo. As to conditions: Lonafarnib infused (n=4) vs vehicle (n=8). An excerpt: We immunolabelled for lysosomal associated membrane protein 1 (LAMP1) in 3xTg AD mice.
For data set [3] the following is noted: cited from earlier work.
The subject of data set [4] is mice. Put plainly: Observation of side-effects during intraventricular drug infusions. The format is in vivo. As to conditions: intraventricular infusion: 50 mg/kg Fasudil for 14 days; 80 mg/kg Lonafarnib for 10 days. How it is done: Fasudil and Lonafarnib have previously been delivered using DMSO, which can damage the BBB and mitochondria as well as cause apoptosis. […] Previous research has shown that ˜98% of all small molecules are not transported across the BBB, whilst other research has shown poor drug transport from CSF to the brain. Taking drug transport across the BBB, and from CSF into the brain parenchyma into consideration, dosages of both 25, 50 and 80 mg/kg were administered in initial pilot experiments.
(§1) In these experiments, a final concentration of 50 mg/kg of Fasudil (10 mM; Selleck Chemicals, Houston, TX, United States) was infused for 14 days in mice and stored at −80° C., whilst a final concentration of 80 mg/kg of Lonafarnib (5 mM; Cayman Chemical, Ann Arbor, MI, United States) was infused for 10 days and stored −20° C. between infusions. […] The same dosages were used during combinatorial infusions of Fasudil and Lonafarnib (administered for a duration of 7 days) in mice (n=4) as the drugs target independent intracellular pathways. All dosages in ml were calculated using; dosage (mg)/concentration (mg/ml)=dose×ml) and were infused at a volume of 60 μl at a rate of 1 μl/min using saline as a control vehicle. […]

Data set [5] deals with 3xTg AD mice injected with AAV-tau. Put plainly: Quantification of tau+ neurons in LEC layer II after AAV-tau injection and intraventricular infusion. As to conditions: Lonafarnib 80 mg/kg intraventricular, 10 days; 6 months-old 3xTg AD mice; n.s. It counts as in vivo. How it is done: Mice were treated identically to microdialysis guide implantation surgeries, up until deriving stereotaxic coordinates. To target LEC layer II, a craniotomy was made at 0.5 mm anterior to lambda and ˜4 mm lateral (dependent on animal weight) to the midline. A Hamilton microsyringe (Neuros 32-gauge syringe, 5 μl, Hamilton company, Nevada, United States) was lowered vertically into the brain to a depth ˜3.6 mm (dependent on animal weight) from the surface, and 300-1,500 nl of viruses was injected using a microinjector (Nanoliter 2010, World Precision Instruments Inc., United States). We injected the adeno-associated virus (AAV)8 GFP-2a-P301 Ltau (with the chicken beta actin [CBA] promoter; hereafter referred to as AAV-tau). In AAV-tau the short 2A peptide cleaves GFP and human tau during translation at the ribosome. […]
(§2) In these experiments, a final concentration of 50 mg/kg of Fasudil (10 mM; Selleck Chemicals, Houston, TX, United States) was infused for 14 days in mice and stored at −80° C., whilst a final concentration of 80 mg/kg of Lonafarnib (5 mM; Cayman Chemical, Ann Arbor, MI, United States) was infused for 10 days and stored −20° C. between infusions. […] All dosages in ml were calculated using; dosage (mg)/concentration (mg/ml)=dose×ml) and were infused at a volume of 60 μl at a rate of 1 μl/min using saline as a control vehicle. […]

In data set [6] the test system is 3xTg AD mice. Put plainly: Quantification of intraneuronal Aβ (Aβ+ neurons) in dSub after drug infusions. As to conditions: Lonafarnib 80 mg/kg intraventricular, 10 days; young 3xTg AD mice. It counts as in vivo. How it is done:
as §1
Effect size (Cohen's D) was calculated based on initial experiments between animals infused with Fasudil and animals infused with a vehicle, and the resulting effects on intraneuronal Aβ in dSub. Based on each group consisting of n=2 animals, an effect size of 0.75 was calculated (0.8 is considered a large effect size). […] Behavioral performance in the morphed environments of the context-dependent spatial memory task was calculated as follows: dig in square-consistent location=1, dig in circle-consistent location=0, dig in any other location=0.5. […]

Data set [7] has as its system 3xTg AD mice. As to the kind of experiment: Multiplex ELISA of Aβ40, Aβ42, p-tau and t-tau in CSF sampled by push-pull microdialysis. The format is in vivo. As to conditions: Lonafarnib, day 10 of infusion, average across younger (injected with AAV-tau) and older mice, vs vehicle. The procedure: Animals were implanted with microdialysis guide cannulas 2 months following injections. Push-pull microdialysis apparatus and sampling Push-pull microdialysis was conducted as previously described (Bjorkli et al., 2021 supra). A refrigerated fraction collector (CMA 470) was set to 6° C. for the storage of collected CSF in 300 μl low-retention polypropylene plastic vials (Harvard Apparatus, Cambridge, MA, United States). Fluorinated ethylene propylene (FEP) peristaltic tubing (CMA Microdialysis AB, Kista, Sweden) was placed inside each plastic vial for collection and connected to the cassette of the peristaltic roller pump (Reglo ICC Digital). This peristaltic FEP tubing was connected to the outlet side of microdialysis probes (β-irrigated 2 mDa microdialysis probe; CMA 7; CMA Microdialysis AB, Kista, Sweden) with a polyethersulfone 2 mm membrane with tubing adapters bathed in 75% ethanol. FEP tubing (CMA Microdialysis AB, Kista, Sweden) was connected to each microsyringe. The FEP tubing was then connected to the inlet part of the microdialysis probes. Transparent cages were prepared with 1.5 cm of bedding, filled water bottles, and treats. Saline or drugs were loaded inside a gastight microsyringe (CMA Microdialysis AB, Kista, Sweden), which was placed into a syringe pump (CMA 4004). The “dead volume” of the FEP outlet tubing ([…]) was calculated. 100 cm of FEP outlet tubing was used, and therefore the first […] sampled from each animal were discarded. Prior to inserting the microdialysis probes into the guide cannula, the probe was conditioned in 75% ethanol for better recovery of analytes. At the conclusion of microdialyte sampling, the vials of 60 μl CSF were centrifuged and kept at −80° C. until the samples were analyzed with multiplex ELISA.
as §2
The MILLIPLEX® MAP human Aβ and tau magnetic bead panel 4-plex ELISA kit (Millipore, Burlington, MA, United States) and the Bio-Plex 200 System instrument (Biorad, Hercules, CA, United States) were used to assess simultaneously the concentrations of Aβ40, Aβ42, total tau (t-tau), and phosphorylated tau at Thr181 (p-tau) in CSF samples. The samples were undiluted and analyzed in duplicates.
In general terms: ELISA stands for enzyme-linked immunosorbent assay.

In the case of `NC(=O)N1CCC(CC(=O)N2CCC([C@H]3c4ncc(Br)cc4CCc4cc(Cl)cc(Br)c43)CC2)CC1` [Lonafarnib, 4-(2-{4-[(11R)-3,10-dibromo-8-chloro-6,11-dihydro-5H-benzo[5,6]cyclohepta[1,2-b]pyridin-11-yl]piperidin-1-yl}-2-oxoethyl)piperidine-1-carboxamide], the “size of amyloid plaques in dSub compared to vehicle” value in data set [1] (n.s.) is on record as “moderately increased”. Also, the “number of dense-core amyloid plaques (overlapping with MC1 immunolabelling) in dSub compared to vehicle infused mice” value in data set [1] (p=0.0017) was “effectively reduced”. For the same compound, in data set [2], the “LAMP1+ neurons in dSub compared to vehicle infused mice” value is “more prominent”. For the same compound, in data set [3], the “solubility in aqueous buffers” value is on record as “sparingly soluble”. In addition, the observable side-effects result in data set [4] was “no observable side-effects”. Further, the “number of tau+ neurons in LEC following injection of AAV-tau” value in data set [5] was “moderately reduced”. For the same compound, the “number of Aβ+ neurons in dSub” value in data set [6] was “did not affect”. In data set [7] (n.s.), the “CSF AB42 levels” value is on record as “moderately reduced” and the CSF p-tau levels entry is “moderately reduced”. Moreover, in data set [7] (p<0.01), the “CSF Aβ40 levels” value was “effectively reduced” and the CSF t-tau levels entry is “effectively reduced”.
